Measured values: patent US20060035810A1, “Regulation of ins(3456)p4 signalling by a reversible kinase phosphatase and methods and compositions related thereto” (priority 2002, published 2006)

What was measured:
[1] = target: T1, Recombinant human Ins(3,4,5,6)P4 1-kinase (Homo sapiens, UniProt Q13572); assay: Inositol phosphate kinase activity assay (HPLC); format: biochemical; conditions: for product of phosphorylation by the kinase: 50 uM substrate, 3.4 ug enzyme, 4 hr, 37° C., 5 mM ATP
T1 construct: made in house; host or cells: E. coli
T1 sequence (Q13572 1-414): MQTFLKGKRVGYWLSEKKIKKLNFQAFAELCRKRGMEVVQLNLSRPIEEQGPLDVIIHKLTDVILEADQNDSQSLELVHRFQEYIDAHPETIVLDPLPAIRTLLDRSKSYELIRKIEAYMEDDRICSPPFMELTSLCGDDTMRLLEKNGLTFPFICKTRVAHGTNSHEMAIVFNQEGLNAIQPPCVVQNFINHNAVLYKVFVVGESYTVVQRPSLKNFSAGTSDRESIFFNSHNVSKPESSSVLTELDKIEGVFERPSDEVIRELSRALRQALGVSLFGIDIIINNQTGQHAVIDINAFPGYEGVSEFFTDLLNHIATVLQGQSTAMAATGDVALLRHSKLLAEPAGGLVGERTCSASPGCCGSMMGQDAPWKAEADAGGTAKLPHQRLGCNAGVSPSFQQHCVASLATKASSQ
Method: (§1) Inositol phosphate phosphatase activity was assayed in buffer containing 100 mM KCl, 20 mM HEPES pH 7.2, 5 mM ADP, 6 mM MgSO4, 0.3 mg/ml bovine serum albumin. Assays were acid-quenched, neutralized and analyzed by HPLC using a Synchropak Q100 columm (Caffrey et al., “Expanding Coincident Signaling by PTEN through its Inositol 1,3,4,5,6-Pentakisphosphate 3-phosphatase Activity,” FEBS Lett 499: 6-10 (2001)); 1 ml fractions were collected for 70 min., followed by 0.5 ml fractions. Inositol phosphate kinase activity was assayed in buffer containing 100 mM KCl, 20 mM HEPES pH 7.2, 5 mM ATP, 10 mM phosphocreatine, 6 mM MgSO4, 10 μg/ml creatine phosphokinase (Calbiochem), 0.3 mg/ml bovine serum albumin. Some assays were acid-quenched and analyzed by HPLC using a Synchropak Q100 column. Other reactions were heat-inactivated (95° C., 3 min) and analyzed by a metal dye detection, HPLC method (Mayr, “A novel metal-dye detection sysytem permits picomolar-range h.p.l.c. analysis of inositol polyphosphates from non-radioactively labelled cell or tissue specimens,” Biochem J 254: 585-591 (1988); Adelt et al., “Enzyme-assisted total synthesis of the optical antipodes D-myo-inositol 3,4,5-trisphosphate and D-myo-inositol 1,5,6-trisphosphate: aspects of their structure-activity relationship to biologically active inositol phosphates,” J Med Chem 42: 1262-1273 (1999)).
Activity of 3.4 ug of inositol 3,4,5,6-tetrakisphosphate 1-kinase was assayed for 4 hr. at 37° C. in 200 μl buffer containing 100 mM KCl, 20 mM HEPES pH 7.2, 5 mM ATP, 10 mM phosphocreatine, 6 mM MgSO4, 10 μg/ml creatine phosphokinase (Calbiochem), 0.3 mg/ml bovine serum albumin and 50 uM of either inositol 3,4,5-trisphosphate, 4,5,6-trisphosphate or inositol 3,5,6-trisphosphate. Reactions were heat-inactivated (95° C., 3 min) and analyzed by a metal dye detection, HPLC method.
[…] (Manassas, Va.) supplied the CFPAC-1 cells and T84 cells. Recombinant human Ins(3,4,5,6)P4 1-kinase was expressed in E. coli and purified (Yang et al., “Multitasking in Signal Transduction by a Promiscuous Human Ins(3,4,5,6)P4 1-Kinase/Ins(1,3,4)P3 5/6-Kinase,” Biochem J 351: 551-555 (2000)). Non-radiolabeled Ins(1,3,4)P3 and Ins(1,3,4,5,6)P5 were purchased from CellSignals Inc (Lexington, Ky.). The details of the synthesis of non-radiolabeled Ins(3,4,5)P3, Ins(3,5,6)P3, Ins(4,5,6)P3 and Ins(3,4,6)P3 (as sodium salts) will be published separately by S.-K. C. Ins(3,4,6)P3 was also prepared by a different synthetic route (Mills et al., “Synthesis of D- and L-myo-inositol 1,4,6-trisphosphate, regioisomers of a ubiquitous second messenger,” J Org Chem 61: 8980-8987 (1996)). [^3H]Ins(1,3,4,5,6)P5 was prepared as previously described (Zhang et al., “The Transcriptional Regulator, Arg82, is a Hybrid Kinase with both Monophosphoinositol- and Diphosphoinositol-Polyphosphate Synthase Activity,” FEBS Lett 494: 208-212 (2001)). [^3H]Ins(1,3,4)P3 was prepared from [^3H]Ins(1,3,4,5)P4 (New England Nuclear) using recombinant Ins(1,4,5)P3/Ins(1,3,4,5)P4 5-phosphatase (Erneux et al., “Production of recombinant human brain type I inositol-1,4,5-trisphosphate 5-phosphatase in Escherichia coli. Lack of phosphorylation by protein kinase C,” Eur J Biochem 234: 598-602 (1995)). [^3H]Ins(1,3,4)P3 was converted to [^3H]Ins(1,3,4,6)P4 using Ins(1,3,4)P3 6-kinase activity (Yang et al., “Multitasking in Signal Transduction by a Promiscuous Human Ins(3,4,5,6)P4 1-Kinase/Ins(1,3,4)P3 5/6-Kinase,” Biochem J 351: 551-555 (2000)). [^3H]Ins(3,4)P2 was prepared by alkaline phosphatase attack on [^3H]Ins(1,3,4)P3 in 20 mM glycine (pH 9.0 with KOH). [^3H]Ins(1,4)P2 was purchased from New England Nuclear.

[2] = test system: insulin granules in pancreatic β-cells; assay: Insulin granule acidification, LSG fluorescence with patch-clamp and confocal imaging; format: cell-based, mouse
Method: FIG. 6. Ins(3,4,5,6)P4 inhibits acidification of insulin granules in pancreatic β-cells. FIG. 6A, Representative time-courses for intragranular acidification, monitored by increased fluorescence of LSG before and after establishment of the standard whole-cell configuration (see arrow) and the effect of perfusion of intracellular medium (containing 0.4 μM [Ca^2+]free except where “no calcium” is indicated; see Methods) plus either 0 (“control”), 1 or 10 μM Ins(3,4,5,6)P4. FIG. 6B, Mean (±SE) fluorescence changes (n-5-11), during the 60 s that followed establishment of the standard whole-cell configuration, for cells perfused with inositol phosphates as indicated at the base of the bar graph. Where indicated, DIDS (100 μM) were added to the bath solution 30 min prior to patching the cells. Statistical significance was evaluated by Student's unpaired t-test (* P<0.01).
The inositol phosphates used in this study were all purchased from CellSignals Inc (Lexington, Ky.). Insulin granule pH were monitored by combining the patch-clamp technique with confocal imaging. Pancreatic β-cells, isolated and cultured on glass coverslips for 2-24 h, were voltage clamped at −70 mV, as previously described (B9). LysoSensor-Green™ DND-189 (1 μM; Molecular Probes, Leiden, The Netherlands) was added during the last 30 min of cell culture and was also included in the extracellular buffer (B9) that continuously perfused the experimental chamber. All LSG experiments were performed at 20° C. to prevent exocytosis that otherwise interfered with the optical measurements (15). LSG fluorescence was excited using the 488 nm-line of a Zeiss 510 confocal microscope. The emitted light was collected with a 63×/1.3 NA oil objective and a >505 nm filter. Laser scanning was performed with low pixel resolution (128×128) and with 6 s intervals to minimize photo-bleaching. After gigaseal formation, it was ascertained that LSG fluorescence was stable for at least 30 s before the experiment commenced. The intracellular electrode solution contained: 125 mM K-glutamate, 10 mM KCl, 1 0 mM NaCl, 1 mM MgCl2, 5 mM HEPES, 3 mM Mg-ATP, 0.1 mM cAMP, 10 mM EGTA and 7 mM CaCl2 (˜0.4 μM free [Ca^2+]I; pH 7.2 with KOH). In some experiments, marked “no calcium”, there was no added Ca^2+, and the concentration of EGTA was 50 μM. Whole-cell capacitance measurements (at 33° C.) were made with the cells clamped at −70 mV, and the standard whole-cell configuration was established at t=0. Capacitance recordings were made using an EPC-7 patch-clamp amplifier equipped with the software Pulse (version 8.4 and later) and the X-chart extension (HEKA Elektronik, Lambrecht/Pfalz, Germany) (B9).

[3] = target: T2, Ins(1,3,4,5,6)P5 1-phosphatase activity of Ins(3,4,5,6)P4 kinase (Homo sapiens, UniProt Q13572); assay: Inositol phosphate phosphatase activity assay with ADP (HPLC); format: biochemical; conditions: 5 μM Ins(1,3,4,5,6)P5, 5 mM ADP, addition of 1-5 μM Ins(1,3,4)P3
T2 construct: made in house; host or cells: E. coli
T2 sequence (Q13572 1-414): T1 sequence (Q13572 1-414)
Method: Ins(3,4,5,6)P4 kinase (0.4 μg) was incubated for 30 min in 100 μl phosphatase assay buffer (see Methods) either with (closed circles) or without (open circles) 5 mM ADP plus trace-amounts of either [^3H]Ins(1,3,4,5,6)P5 (panel A) [^3H]Ins(1,3,4,6)P4 (panel B), or [^3H]Ins(1,3,4,5)P4 (panel C). Samples were analyzed by HPLC (see Methods). The elution positions of Ins(1,3,4)P3 and Ins(3,4,5,6)P4 were verified with genuine standards. The elution positions of Ins(1,3,4,6)P4 (106 min, panel B) and of Ins(1,3,4,5)P4 (110 min, panel C) exclude these as products of InsP5 dephosphorylation (panel A).
Additional incubations were performed with 5 μM [^3H]Ins(1,3,4)P3 (approx. 1200 d.p.m.) plus either no Ins(1,3,4,5,6)P5 (open circles) or 5 μM non-radiolabeled Ins(1,3,4,5,6)P5 (closed circles); these reactions were assayed by HPLC (Synchropak Q100 column) and the InsP4 region of the chromatogram is shown in Panel B.
as §1

[4] = test system: calcium-activated Cl− channels; assay: Whole-cell Cl− current in CFPAC-1 cells (bio-assay for Ins(3,4,5,6)P4); format: cell-based, human; conditions: 100 μM introduced into CFPAC-1 cells; control 54±3 pA/pF
Method: T84 cells were detached by incubation with 0.25% (w/v) trypsin/0.02% (w/v) EDTA for 5-6 min. After trypsin removal, 200 μl aliquots (1.5×10^6/ml) were seeded into the circular wells (area=0.45 cm^2) of permeable supports, made by gluing (Silastic® sealant, Dow Corning, Midland, Mich.) a Sylgard® ring to filters composed of mixed cellulose esters (Millipore Corp., Bedford, Mass.). Seeded supports were floated on culture medium and incubated for 11-14 days before being mounted in modified Snapwell holders in Using chambers (EasyMount System, Physiologics Instruments, San Diego, Calif.). Transcellular Cl^− flux was then recorded as the short-circuit current as previously described. The resistance of the monolayers were (vector) 346±44 ohms/cm^2 (mean±se, n=12) and (kinase) 354±62 ohms/cm^2 (mean±se, n=12). Whole-cell Cl^− currents in CFPAC—I cells were measured at +40 mV as previously described using an intracellular Ca^2+-BAPTA buffer to clamp free [Ca^2+] to 0.5 μM [8]. One possibility is that Ins(3,4,5,6)P4 originates by phosphorylation of an InsP3 precursor. […] Control whole-cell Cl^− current (54±3 pA/pF, n—17) was reduced to 24±3 pA/pF (n=7) by 10 μM Ins(3,4,5,6)P4.

whether the enzyme phosphorylates the inositol phosphate [1]	Structure (SMILES)	product of phosphorylation by the kinase [1]	whole-cell Cl− current [4] [pA/pF]	other results
does not phosphorylate	O=P(O)(O)O[C@H]1[C@H](OP(=O)(O)O)[C@@H](OP(=O)(O)O)[C@@H](O)[C@@H](O)[C@@H]1OP(=O)(O)O [Ins(1,4,5,6)P4, inositol 1,4,5,6-tetrakisphosphate]			effect on vesicle acidification ([2]; 100 μM): neither 100 μM Ins(1,4,5,6)P4 nor 100 μM Ins(1,3,4,5,6)P5 affected
does not phosphorylate	O=P(O)(O)O[C@H]1[C@H](O)[C@@H](OP(=O)(O)O)[C@H](OP(=O)(O)O)[C@@H](OP(=O)(O)O)[C@H]1O [Ins(1,3,4,5)P4]			
	O=P(O)(O)O[C@@H]1[C@H](O)[C@H](O)[C@@H](OP(=O)(O)O)[C@H](OP(=O)(O)O)[C@H]1O [Ins(1,3,4)P3, inositol 1,3,4-trisphosphate]			increase of net accumulation of Ins(3,4,5,6)P4 [3]: up to 5 fold
	NCCCCCCNS(=O)(=O)c1cccc2c(Cl)cccc12 [W-7]			effect on granule acidification ([2]; treatment of the cells with calmodulin antagonist): without effect
	O=P(O)(O)OC1C(O)C(O)C(O)C(OP(=O)(O)O)C1OP(=O)(O)O (stereo not drawn) [Ins(4,5,6)P3, inositol 4,5,6-trisphosphate]	phosphorylated to inositol 1,4,5,6-tetrakisphosphate	56±7	
	O=P(O)(O)O[C@@H]1[C@@H](O)[C@H](OP(=O)(O)O)[C@@H](OP(=O)(O)O)[C@H](O)[C@@H]1O [Ins(3,5,6)P3, inositol 3,5,6-trisphosphate]	phosphorylated to inositol 1,3,5,6-tetrakisphosphate	60±6	
	O=P(O)(O)OC1[C@@H](OP(=O)(O)O)[C@@H](O)C(O)[C@H](O)[C@H]1OP(=O)(O)O (stereo partly drawn) [Ins(3,4,5)P3, inositol 3,4,5-trisphosphate]	phosphorylated to inositol 3,4,5,6-tetrakisphosphate	61±7	
	O=P(O)(O)O[C@H]1[C@H](O)[C@H](O)[C@H](OP(=O)(O)O)[C@@H](OP(=O)(O)O)[C@@H]1O [Ins(3,4,6)P3, inositol 3,4,6-trisphosphate]	metabolized to Ins(1,3,4,5)P4	68±5	Km ([1]; read-out: Km as kinase substrate): 0.2 µM
not phosphorylated	O=P(O)(O)O[C@H]1[C@H](O)[C@@H](O)[C@H](OP(=O)(O)O)[C@@H](O)[C@H]1O [Ins(1,4)P2]			
